The numbers were not newly measured in patent US20050227998A1, “Compositions and methods of decreasing nicotine withdrawal” (priority 2004, published 2005), which cites them from elsewhere.

The subject of this data set is monkeys.

Turning to `CN1[C@@H]2C[C@@H](OC(=O)[C@H](CO)c3ccccc3)C[C@H]1[C@@H]1O[C@@H]12` [scopolamine, Scopolamine], the smoking patterns result is “decreased”.
